Experimental data: patent US4002623A, “Anti-inflammatory 1-[3-(dialkylamino)propyl]-2-acylaminobenzimidazoles and 2-acylamino-3-[3-(dialkylamino)-propyl]imidazo[4,5-b]pyridines” (Pfizer Inc., priority 1974, dated 1977)

Experiment: adjuvant arthritis screen (Walz et al.), swelling of the non-injected left hind foot on Day 16
Type: in vivo, male inbred Lewis rats
Details: Rattus norvegicus, 384 h, daily day -1 through day 15, read-out: Activity Percent Inhibition; for inhibition in vivo at 33 mg/kg: 33 mg./kg. ip
Method in brief: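 Male inbred Lewis rats (~250 g) were dosed daily from day −1 through day 15 and injected on day 0 with 0.1 cc of 1% Mycobacterium butyricum suspension into the right hind paw. Volume of the uninjected left hind paw on day 16 was measured by mercury plethysmography. Results are % inhibition versus controls.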

CN1CCN(CCCn2c(NC(=O)c3ccccc3)nc3cc(S(=O)(=O)N(C)C)ccc32)CC1 [Phenyl; SO2 N(CH3)2; H; drawing 24]
inhibition in vivo at 20 mg/kg (20 mg./kg. po): 32%

O=C(C=Cc1ccccc1)Nc1nc2ccccc2n1CCCN1CCCCC1 [Styryl; H; H; drawing 26]
inhibition in vivo at 33 mg/kg: 33%

CN1CCN(CCCn2c(NC(=O)c3ccc(-c4ccccc4)cc3)nc3ccccc32)CC1 [p-Phenylphenyl; H; H; drawing 24]
inhibition in vivo at 33 mg/kg: 46%
